Test results as given in PubChem BioAssay AID250 (DTP/NCI, 2004).
“And” between values parts separate entries of the source, which are not always exact repeats. Identical values can stand only once. Toxic doses and inconclusive results are not listed.

Test system: BDF1 mice, L1210 leukemia sc, survival T/C
Experiment: NCI In Vivo Anticancer Drug Screen. Data for tumor model L1210 Leukemia (subcutaneous) in B6D2F1 (BDF1) mice
Conditions: endpoint: median survival time, higher = longer survival
In short: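 Tumors were transplanted into mice, the animals were treated with compound, survival or tumor size was then measured, and treated values were divided by vehicle-control values.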

For O=C(Nc1ccc(C2=NCCN2)cc1)c1ccc(C(=O)Nc2ccc(C3=NCCN3)cc2)c(Cl)c1, which T/C (dose: 0.19 mg/kg/injection, schedule: Q01DX Z (iv), vehicle: water) is on record?
Its T/C is 100 % of control.

And the T/C (dose: 0.38 mg/kg/injection, schedule: Q01DX Z (iv), vehicle: water)?
The T/C was 100 % of control.

And the T/C (dose: 0.75 mg/kg/injection, schedule: Q01DX Z (iv), vehicle: water)?
The T/C was 90 % of control.

What about the T/C (dose: 1.3 mg/kg/injection, schedule: Q01DX Z (ip), vehicle: water) of the same compound?
The T/C was 95 % of control.

What about the T/C (dose: 1.5 mg/kg/injection, schedule: Q01DX Z (iv), vehicle: water) of the same compound?
Its T/C is 95 % of control.

And the T/C (dose: 2.16 mg/kg/injection, schedule: Q01DX Z (ip), vehicle: water)?
The T/C was 100 % of control.

And the T/C (dose: 2.16 mg/kg/injection, schedule: Q01DX Z (sc), vehicle: water)?
The T/C was 95 % of control.

And the T/C (dose: 2.5 mg/kg/injection, schedule: Q01DX Z (sc), vehicle: methylcellulose (MC))?
The T/C was 111 % of control.

And the T/C (dose: 3.0 mg/kg/injection, schedule: Q01DX Z (ip), vehicle: water)?
The T/C was 100 % of control.

And the T/C (dose: 3.0 mg/kg/injection, schedule: Q01DX Z (iv), vehicle: water)?
The T/C was 100 % of control.

What about the T/C (dose: 3.0 mg/kg/injection, schedule: Q01DX Z (sc), vehicle: saline) of the same compound?
Its T/C is 100 % of control and 104 % of control.

What about the T/C (dose: 3.6 mg/kg/injection, schedule: Q01DX Z (ip), vehicle: water) of the same compound?
Its T/C is 90 % of control.

And the T/C (dose: 3.6 mg/kg/injection, schedule: Q01DX Z (sc), vehicle: water)?
The T/C was 100 % of control.

What about the T/C (dose: 5.0 mg/kg/injection, schedule: Q01DX Z (ip), vehicle: water) of the same compound?
Its T/C is 100 % of control.

What about the T/C (dose: 5.0 mg/kg/injection, schedule: Q01DX Z (sc), vehicle: methylcellulose (MC)) of the same compound?
The T/C was 116 % of control.

What about the T/C (dose: 5.0 mg/kg/injection, schedule: Q01DX Z (sc), vehicle: saline) of the same compound?
Its T/C is 100 % of control.

What about the T/C (dose: 5.0 mg/kg/injection, schedule: Q01DX Z (sc), vehicle: water) of the same compound?
The T/C was 110 % of control and 111 % of control.

And the T/C (dose: 6.0 mg/kg/injection, schedule: Q01DX Z (ip), vehicle: water)?
The T/C was 95 % of control.

What about the T/C (dose: 6.0 mg/kg/injection, schedule: Q01DX Z (iv), vehicle: water) of the same compound?
The T/C was 100 % of control.

What about the T/C (dose: 6.0 mg/kg/injection, schedule: Q01DX Z (sc), vehicle: water) of the same compound?
Its T/C is 100 % of control.

What about the T/C (dose: 8.4 mg/kg/injection, schedule: Q01DX Z (ip), vehicle: water) of the same compound?
Its T/C is 160 % of control.

And the T/C (dose: 8.4 mg/kg/injection, schedule: Q01DX Z (sc), vehicle: saline)?
The T/C was 109 % of control and 110 % of control and 122 % of control.

And the T/C (dose: 8.4 mg/kg/injection, schedule: Q01DX Z (sc), vehicle: water)?
The T/C was 170 % of control.

And the T/C (dose: 10.0 mg/kg/injection, schedule: Q01DX Z (ip), vehicle: water)?
The T/C was 105 % of control.

What about the T/C (dose: 10.0 mg/kg/injection, schedule: Q01DX Z (sc), vehicle: methylcellulose (MC)) of the same compound?
Its T/C is 244 % of control.

And the T/C (dose: 10.0 mg/kg/injection, schedule: Q01DX Z (sc), vehicle: water)?
The T/C was 120 % of control and 233 % of control.

What about the T/C (dose: 12.0 mg/kg/injection, schedule: Q01DX Z (sc), vehicle: water) of the same compound?
Its T/C is 181 % of control.

What about the T/C (dose: 14.0 mg/kg/injection, schedule: Q01DX Z (ip), vehicle: water) of the same compound?
Its T/C is 160 % of control.

What about the T/C (dose: 14.0 mg/kg/injection, schedule: Q01DX Z (sc), vehicle: saline) of the same compound?
Its T/C is 210 % of control.

And the T/C (dose: 14.0 mg/kg/injection, schedule: Q01DX Z (sc), vehicle: water)?
The T/C was 190 % of control and 170 % of control.

And the T/C (dose: 14.0 mg/kg/injection, schedule: Q02DX Z (sc), vehicle: saline)?
Its T/C is 100 % of control.

What about the T/C (dose: 17.0 mg/kg/injection, schedule: Q01DX001 (ip), vehicle: water) of the same compound?
The T/C was 100 % of control.

What about the T/C (dose: 17.0 mg/kg/injection, schedule: Q01DX Z (sc), vehicle: water) of the same compound?
Its T/C is 210 % of control.

And the T/C (dose: 20.0 mg/kg/injection, schedule: Q01DX Z (sc), vehicle: methylcellulose (MC))?
The T/C was 244 % of control.

And the T/C (dose: 20.0 mg/kg/injection, schedule: Q01DX Z (sc), vehicle: water)?
The T/C was 244 % of control.

And the T/C (dose: 23.0 mg/kg/injection, schedule: Q01DX Z (ip), vehicle: water)?
Its T/C is 180 % of control.

What about the T/C (dose: 23.0 mg/kg/injection, schedule: Q01DX Z (sc), vehicle: other) of the same compound?
Its T/C is 210 % of control.

What about the T/C (dose: 23.0 mg/kg/injection, schedule: Q01DX Z (sc), vehicle: saline) of the same compound?
Its T/C is 195 % of control and 200 % of control.

What about the T/C (dose: 23.0 mg/kg/injection, schedule: Q01DX Z (sc), vehicle: water) of the same compound?
The T/C was 210 % of control and 240 % of control and 170 % of control.

What about the T/C (dose: 23.0 mg/kg/injection, schedule: Q02DX Z (sc), vehicle: saline) of the same compound?
Its T/C is 110 % of control.

And the T/C (dose: 23.0 mg/kg/injection, schedule: Q## X Z (sc), vehicle: saline)?
Its T/C is 110 % of control.

What about the T/C (dose: 24.0 mg/kg/injection, schedule: Q01DX Z (sc), vehicle: water) of the same compound?
Its T/C is 200 % of control.

What about the T/C (dose: 28.0 mg/kg/injection, schedule: Q01DX001 (ip), vehicle: water) of the same compound?
Its T/C is 100 % of control.

And the T/C (dose: 28.0 mg/kg/injection, schedule: Q01DX Z (ip), vehicle: water)?
The T/C was 205 % of control.

What about the T/C (dose: 28.0 mg/kg/injection, schedule: Q01DX Z (sc), vehicle: water) of the same compound?
The T/C was 190 % of control.

What about the T/C (dose: 39.0 mg/kg/injection, schedule: Q01DX Z (sc), vehicle: other) of the same compound?
Its T/C is 200 % of control.

What about the T/C (dose: 39.0 mg/kg/injection, schedule: Q01DX Z (sc), vehicle: saline) of the same compound?
The T/C was 180 % of control and 185 % of control and 195 % of control.

And the T/C (dose: 39.0 mg/kg/injection, schedule: Q01DX Z (sc), vehicle: water)?
The T/C was 210 % of control and 195 % of control.

And the T/C (dose: 39.0 mg/kg/injection, schedule: Q## X Z (sc), vehicle: saline)?
The T/C was 170 % of control.

What about the T/C (dose: 40.0 mg/kg/injection, schedule: Q01DX001 (sc), vehicle: methylcellulose (MC)) of the same compound?
The T/C was 111 % of control.

And the T/C (dose: 40.0 mg/kg/injection, schedule: Q01DX Z (sc), vehicle: methylcellulose (MC))?
Its T/C is 177 % of control.

What about the T/C (dose: 40.0 mg/kg/injection, schedule: Q01DX Z (sc), vehicle: water) of the same compound?
The T/C was 227 % of control.

And the T/C (dose: 47.0 mg/kg/injection, schedule: Q01DX001 (ip), vehicle: water)?
The T/C was 100 % of control.

What about the T/C (dose: 47.0 mg/kg/injection, schedule: Q01DX Z (sc), vehicle: water) of the same compound?
Its T/C is 200 % of control.

What about the T/C (dose: 48.0 mg/kg/injection, schedule: Q01DX Z (sc), vehicle: water) of the same compound?
Its T/C is 181 % of control.

What about the T/C (dose: 65.0 mg/kg/injection, schedule: Q01DX Z (sc), vehicle: other) of the same compound?
The T/C was 180 % of control.

What about the T/C (dose: 65.0 mg/kg/injection, schedule: Q01DX Z (sc), vehicle: saline) of the same compound?
Its T/C is 155 % of control and 163 % of control and 166 % of control.

What about the T/C (dose: 65.0 mg/kg/injection, schedule: Q01DX Z (sc), vehicle: water) of the same compound?
The T/C was 155 % of control and 185 % of control and 170 % of control.

What about the T/C (dose: 65.0 mg/kg/injection, schedule: Q## X Z (sc), vehicle: saline) of the same compound?
The T/C was 200 % of control.

And the T/C (dose: 78.0 mg/kg/injection, schedule: Q01DX001 (ip), vehicle: water)?
The T/C was 100 % of control.

And the T/C (dose: 78.0 mg/kg/injection, schedule: Q01DX001 (sc), vehicle: water)?
The T/C was 100 % of control.

What about the T/C (dose: 78.0 mg/kg/injection, schedule: Q01DX Z (sc), vehicle: water) of the same compound?
Its T/C is 170 % of control.

And the T/C (dose: 80.0 mg/kg/injection, schedule: Q01DX001 (sc), vehicle: methylcellulose (MC))?
Its T/C is 116 % of control.

And the T/C (dose: 80.0 mg/kg/injection, schedule: Q01DX Z (sc), vehicle: methylcellulose (MC))?
The T/C was 111 % of control.

What about the T/C (dose: 80.0 mg/kg/injection, schedule: Q01DX Z (sc), vehicle: water) of the same compound?
Its T/C is 155 % of control.

And the T/C (dose: 108.0 mg/kg/injection, schedule: Q01DX001 (sc), vehicle: saline)?
The T/C was 170 % of control.

And the T/C (dose: 108.0 mg/kg/injection, schedule: Q01DX Z (sc), vehicle: saline)?
Its T/C is 154 % of control.

And the T/C (dose: 108.0 mg/kg/injection, schedule: Q02DX Z (sc), vehicle: saline)?
Its T/C is 200 % of control.

And the T/C (dose: 130.0 mg/kg/injection, schedule: Q01DX001 (ip), vehicle: water)?
The T/C was 105 % of control.

And the T/C (dose: 130.0 mg/kg/injection, schedule: Q01DX001 (sc), vehicle: water)?
The T/C was 110 % of control.

What about the T/C (dose: 160.0 mg/kg/injection, schedule: Q01DX001 (sc), vehicle: methylcellulose (MC)) of the same compound?
The T/C was 166 % of control.

What about the T/C (dose: 160.0 mg/kg/injection, schedule: Q01DX001 (sc), vehicle: water) of the same compound?
Its T/C is 161 % of control.

And the T/C (dose: 180.0 mg/kg/injection, schedule: Q01DX001 (sc), vehicle: saline)?
Its T/C is 190 % of control.

What about the T/C (dose: 180.0 mg/kg/injection, schedule: Q01DX Z (sc), vehicle: other) of the same compound?
The T/C was 115 % of control.

And the T/C (dose: 180.0 mg/kg/injection, schedule: Q02DX Z (sc), vehicle: saline)?
The T/C was 180 % of control.

What about the T/C (dose: 300.0 mg/kg/injection, schedule: Q01DX Z (sc), vehicle: other) of the same compound?
The T/C was 90 % of control.

What about the T/C (dose: 300.0 mg/kg/injection, schedule: Q01DX Z (sc), vehicle: water) of the same compound?
The T/C was 105 % of control.

What about the T/C (dose: 300.0 mg/kg/injection, schedule: Q02DX Z (sc), vehicle: saline) of the same compound?
Its T/C is 170 % of control.

What about the T/C (dose: 300.0 mg/kg/injection, schedule: Q## X Z (sc), vehicle: saline) of the same compound?
The T/C was 205 % of control.

And the T/C (dose: 320.0 mg/kg/injection, schedule: Q01DX001 (sc), vehicle: water)?
The T/C was 222 % of control.

And the T/C (dose: 360.0 mg/kg/injection, schedule: Q01DX001 (sc), vehicle: water)?
The T/C was 155 % of control.

What about the T/C (dose: 500.0 mg/kg/injection, schedule: Q## X Z (sc), vehicle: saline) of the same compound?
The T/C was 200 % of control.

And the T/C (dose: 600.0 mg/kg/injection, schedule: Q01DX001 (sc), vehicle: water)?
Its T/C is 150 % of control.
